ChEMBL document CHEMBL3877316, “Synthesis of pharmacologically important naphthoquinones and anticancer activity of 2-benzyllawsone through DNA topoisomerase-II inhibition” (Bioorg Med Chem, 2017)
Calls of active or inactive are those of the source. No cut-off for these calls is given here.

Assays:
[1] = system: Mus musculus; experiment: Acute toxicity in Swiss albino mouse assessed as serum SGPT level at 1000 mg/kg, po qd administered as single dose for 7 days (reference value: 23.06 +/- 1.92 U/L); format: organism-based; conditions: in vivo, 168 h
[2] = system: FaDu; experiment: Induction of apoptosis in human FADU cells at 10 uM by propidium iodide staining based flow cytometry; format: functional, cell-based
[3] = system: Mus musculus; experiment: Acute toxicity in Swiss albino mouse assessed as serum haemoglobin level at 300 mg/kg, po qd administered as single dose for 7 days (reference value: 13.29 +/- 0.46 g/dl); format: organism-based; conditions: in vivo, 168 h
[4] = system: Mus musculus; experiment: Acute toxicity in Swiss albino mouse assessed as serum ALP level at 50 mg/kg, po qd administered as single dose for 7 days (reference value: 292.13 +/- 40.29 U/L); format: organism-based; conditions: in vivo, 168 h
[5] = system: Mus musculus; experiment: Acute toxicity in Swiss albino mouse assessed as serum triglycerides level at 5 mg/kg, po qd administered as single dose for 7 days (reference value: 107.9 +/- 10.7 mg/dl); format: organism-based; conditions: in vivo, 168 h
[6] = system: Mus musculus; experiment: Acute toxicity in Swiss albino mouse assessed as changes in relative weight of spleen up to 1000 mg/kg, po qd administered as single dose for 7 days; format: organism-based; conditions: in vivo, 168 h
[7] = system: Mus musculus; experiment: Acute toxicity in Swiss albino mouse assessed as effect on monocyte count up to 1000 mg/kg, po qd administered as single dose for 7 days; format: organism-based; conditions: in vivo, 168 h
[8] = system: Mus musculus; experiment: Acute toxicity in Swiss albino mouse assessed as serum ALP level at 5 mg/kg, po qd administered as single dose for 7 days (reference value: 292.13 +/- 40.29 U/L); format: organism-based; conditions: in vivo, 168 h
[9] = system: Mus musculus; experiment: Acute toxicity in Swiss albino mouse assessed as serum protein level at 5 mg/kg, po qd administered as single dose for 7 days (reference value: 2.91 +/- 0.31 mg/ml); format: organism-based; conditions: in vivo, 168 h
[10] = system: Mus musculus; experiment: Acute toxicity in Swiss albino mouse assessed as changes in gait up to 1000 mg/kg, po qd administered as single dose for 7 days; format: organism-based; conditions: in vivo, 168 h
[11] = system: Mus musculus; experiment: Acute toxicity in Swiss albino mouse assessed as changes in relative weight of liver up to 1000 mg/kg, po qd administered as single dose for 7 days; format: organism-based; conditions: in vivo, 168 h
[12] = system: Mus musculus; experiment: Acute toxicity in Swiss albino mouse assessed as serum WBC level at 5 mg/kg, po qd administered as single dose for 7 days (reference value: 8.64 +/- 0.42 10^3/mm3); format: organism-based; conditions: in vivo, 168 h
[13] = system: Mus musculus; experiment: Acute toxicity in Swiss albino mouse assessed as effect on lymphocyte count up to 1000 mg/kg, po qd administered as single dose for 7 days; format: organism-based; conditions: in vivo, 168 h
[14] = system: Mus musculus; experiment: Acute toxicity in Swiss albino mouse assessed as changes in posture up to 1000 mg/kg, po qd administered as single dose for 7 days; format: organism-based; conditions: in vivo, 168 h
[15] = system: Mus musculus; experiment: Acute toxicity in Swiss albino mouse assessed as serum ALP level at 300 mg/kg, po qd administered as single dose for 7 days (reference value: 292.13 +/- 40.29 U/L); format: organism-based; conditions: in vivo, 168 h
[16] = system: Mus musculus; experiment: Acute toxicity in Swiss albino mouse assessed as serum protein level at 300 mg/kg, po qd administered as single dose for 7 days (reference value: 2.91 +/- 0.31 mg/ml); format: organism-based; conditions: in vivo, 168 h
[17] = system: Mus musculus; experiment: Acute toxicity in Swiss albino mouse assessed as serum protein level at 1000 mg/kg, po qd administered as single dose for 7 days (reference value: 2.91 +/- 0.31 mg/ml); format: organism-based; conditions: in vivo, 168 h
[18] = system: Mus musculus; experiment: Acute toxicity in Swiss albino mouse assessed as changes in absolute weight of kidney up to 1000 mg/kg, po qd administered as single dose for 7 days; format: organism-based; conditions: in vivo, 168 h
[19] = system: Mus musculus; experiment: Acute toxicity in Swiss albino mouse assessed as serum haemoglobin level at 5 mg/kg, po qd administered as single dose for 7 days (reference value: 13.29 +/- 0.46 g/dl); format: organism-based; conditions: in vivo, 168 h
[20] = system: Mus musculus; experiment: Acute toxicity in Swiss albino mouse assessed as mortality up to 1000 mg/kg, po qd administered as single dose for 7 days; format: organism-based; conditions: in vivo, 168 h
[21] = system: Mus musculus; experiment: Acute toxicity in Swiss albino mouse assessed as serum protein level at 50 mg/kg, po qd administered as single dose for 7 days (reference value: 2.91 +/- 0.31 mg/ml); format: organism-based; conditions: in vivo, 168 h
[22] = system: Mus musculus; experiment: Acute toxicity in Swiss albino mouse assessed as body weight at 1000 mg/kg, po qd administered as single dose for 7 days (reference value: 27.73 +/- 0.94 g); format: organism-based; conditions: in vivo, 168 h
[23] = system: Mus musculus; experiment: Acute toxicity in Swiss albino mouse assessed as serum creatinine level at 300 mg/kg, po qd administered as single dose for 7 days (reference value: 0.09 +/- 0.01 mg/dl); format: organism-based; conditions: in vivo, 168 h
[24] = system: Mus musculus; experiment: Acute toxicity in Swiss albino mouse assessed as serum triglycerides level at 50 mg/kg, po qd administered as single dose for 7 days (reference value: 107.9 +/- 10.7 mg/dl); format: organism-based; conditions: in vivo, 168 h
[25] = system: Mus musculus; experiment: Acute toxicity in Swiss albino mouse assessed as serum creatinine level at 5 mg/kg, po qd administered as single dose for 7 days (reference value: 0.09 +/- 0.01 mg/dl); format: organism-based; conditions: in vivo, 168 h
[26] = system: Mus musculus; experiment: Acute toxicity in Swiss albino mouse assessed as serum cholesterol level at 5 mg/kg, po qd administered as single dose for 7 days (reference value: 68.37 +/- 4.42 mg/dl); format: organism-based; conditions: in vivo, 168 h
[27] = system: Mus musculus; experiment: Acute toxicity in Swiss albino mouse assessed as effect on neutrophil count up to 1000 mg/kg, po qd administered as single dose for 7 days; format: organism-based; conditions: in vivo, 168 h
[28] = system: Mus musculus; experiment: Acute toxicity in Swiss albino mouse assessed as changes in absolute weight of spleen up to 1000 mg/kg, po qd administered as single dose for 7 days; format: organism-based; conditions: in vivo, 168 h
[29] = system: Mus musculus; experiment: Acute toxicity in Swiss albino mouse assessed as serum WBC level at 300 mg/kg, po qd administered as single dose for 7 days (reference value: 8.64 +/- 0.42 10^3/mm3); format: organism-based; conditions: in vivo, 168 h
[30] = system: Mus musculus; experiment: Acute toxicity in Swiss albino mouse assessed as serum SGOT level at 300 mg/kg, po qd administered as single dose for 7 days (reference value: 34.32 +/- 3.78 U/L); format: organism-based; conditions: in vivo, 168 h
[31] = system: Mus musculus; experiment: Acute toxicity in Swiss albino mouse assessed as serum cholesterol level at 1000 mg/kg, po qd administered as single dose for 7 days (reference value: 68.37 +/- 4.42 mg/dl); format: organism-based; conditions: in vivo, 168 h
[32] = system: Mus musculus; experiment: Acute toxicity in Swiss albino mouse assessed as serum RBC level at 300 mg/kg, po qd administered as single dose for 7 days (reference value: 9.07 +/- 1.13 million/mm3); format: organism-based; conditions: in vivo, 168 h
[33] = system: Mus musculus; experiment: Acute toxicity in Swiss albino mouse assessed as serum triglycerides level at 300 mg/kg, po qd administered as single dose for 7 days (reference value: 107.9 +/- 10.7 mg/dl); format: organism-based; conditions: in vivo, 168 h
[34] = system: Mus musculus; experiment: Acute toxicity in Swiss albino mouse assessed as serum SGPT level at 300 mg/kg, po qd administered as single dose for 7 days (reference value: 23.06 +/- 1.92 U/L); format: organism-based; conditions: in vivo, 168 h
[35] = system: Mus musculus; experiment: Acute toxicity in Swiss albino mouse assessed as serum triglycerides level at 1000 mg/kg, po qd administered as single dose for 7 days (reference value: 107.9 +/- 10.7 mg/dl); format: organism-based; conditions: in vivo, 168 h

For O=C1C=C(OCc2ccccc2)C(=O)c2ccccc21, the Activity [1] was 25 U/L, the Activity [2] was “Active” and the Activity [3] was 13.42 g/dL. The Activity [4] was 304.24 U/L, the Activity [5] was 130.9 mg/dL and the Activity [6] was “Non-Toxic”. For the same compound, the Activity [7] was “Non-Toxic”, the Activity [8] was 307.74 U/L and the Activity [9] was 2.55 mg/mL. For the same compound, the Activity [10] was “Non-Toxic”, the Activity [11] was “Non-Toxic” and the Activity [12] was 8.66 ×10³ /mm3. For the same compound, the Activity [13] was “Non-Toxic”, the Activity [14] was “Non-Toxic” and the Activity [15] was 386.48 U/L. The Activity [16] was 2.43 mg/mL, the Activity [17] was 2.95 mg/mL and the Activity [18] was “Non-Toxic”. For the same compound, the Activity [19] was 12.65 g/dL, the Activity [20] was “Non-Toxic” and the Activity [21] was 2.92 mg/mL. For the same compound, the Activity [22] was 26.48 g, the Activity [23] was 0.13 mg/dL and the Activity [24] was 112.9 mg/dL. For the same compound, the Activity [25] was 0.14 mg/dL, the Activity [26] was 65.28 mg/dL and the Activity [27] was “Non-Toxic”. The Activity [28] was “Non-Toxic”, the Activity [29] was 8.52 ×10³ /mm3 and the Activity [30] was 33.87 U/L. It also gave an Activity [31] of 51.05 mg/dL, an Activity [32] of 9.59 million/mm3 and an Activity [33] of 119.3 mg/dL. It also gave an Activity [34] of 20.48 U/L and an Activity [35] of 127.4 mg/dL.
